Test results published in ChEMBL document CHEMBL3137667, “[Drug-induced liver injury; fourteenth updated edition of the bibliographic database of liver injuries and related drugs]” (Gastroenterol Clin Biol, 2004).

Columns and labels:
[1] = human
[2] = human; remark: listed apart in the source
[3] = human; remark: listed apart in the source
[4] = Highest frequency of moderate liver toxicity observed during clinical trials, expressed as a percentage. [column '% BIOL' in source]; conditions: human
[5] = human; remark: listed apart in the source
[6] = human, serum, 4383 h
[7] = human; remark: listed apart in the source
[8] = Highest frequency of acute liver toxicity observed during clinical trials, expressed as a percentage. [column '% AIGUE' in source]; conditions: human
[9] = human; remark: listed apart in the source
[10] = human; remark: listed apart in the source
[11] = human, serum
[12] = human, serum; remark: listed apart in the source
[13] = human; remark: listed apart in the source
[14] = human; remark: listed apart in the source
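Wherever Hepatotoxicity (association with vascular disease) is given: count of indexed literature references reporting vascular liver injury in humans, e.g. peliosis hepatitis, hepatic veno-occlusive disease or Budd-Chiari syndrome.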
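Wherever Hepatotoxicity (benign tumour) is given: value is a count of indexed literature references citing a benign tumour confirmed by histopathology.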
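Wherever Hepatotoxicity (choleostasis) is given: human cholestatic liver injury, shown by histopathology or by peak ALT or AST elevation over alkaline phosphatase ratio below 2, value counts indexed literature reports.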
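Wherever Hepatotoxicity (chronic liver disease) is given: chronic liver injury confirmed by histopathology or persistently raised serum aminotransferase activity beyond 6 months, value given as the count of indexed literature references.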
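Wherever Hepatotoxicity (cirrhosis) is given: value is a count of indexed literature references reporting cirrhosis confirmed by histopathology.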
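Wherever Hepatotoxicity (cytolytic) is given: human cytolytic liver injury, shown by histopathology or by a ratio above 5 of peak ALT or AST elevation to alkaline phosphatase elevation, value counts indexed references.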
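Wherever Hepatotoxicity (granulomatous hepatitis) is given: value is a count of indexed literature references reporting granulomatous liver disease confirmed by histopathology.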
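Wherever Hepatotoxicity (malignant tumour) is given: malignant tumour confirmed by histopathology, value gives the count of indexed literature references reporting it.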
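Wherever Hepatotoxicity (severe hepatitis) is given: human clinical data: severe hepatitis, meaning potentially life-threatening liver failure or clinically observed cases, the value counts how many indexed literature references report it.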
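Wherever Hepatotoxicity (steatosis) is given: steatosis confirmed by histopathology, value is the count of indexed references.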

Compound: NC(=O)OC[C@@H]1[C@H](NC(=O)/C(=N\OCC(=O)O)c2csc(N)n2)C(=O)N1S(=O)(=O)O [CARUMONAM]
- Hepatotoxicity (malignant tumour) [1]: 0
- Hepatotoxicity (association with vascular disease) [2]: 0
- Hepatotoxicity (severe hepatitis) [3]: 0
- Hepatotoxicity (moderate) [4]: 22%
- Hepatotoxicity (cirrhosis) [5]: 0
- Hepatotoxicity (chronic liver disease) [6]: 0
- Hepatotoxicity (benign tumour) [7]: 0
- Hepatotoxicity (acute) [8]: 0%
- Hepatotoxicity (steatosis) [9]: 0
- Hepatotoxicity (choleostasis) [10]: 0
- Hepatotoxicity (acute) [11]: 0
- Hepatotoxicity (moderate) [12]: 24
- Hepatotoxicity (cytolytic) [13]: 0
- Hepatotoxicity (granulomatous hepatitis) [14]: 0

Compound: CC(C)(Oc1ccc(Cl)cc1)C(=O)OCCOC(=O)c1cccnc1 [ETOFIBRATE]
- Hepatotoxicity (malignant tumour) [1]: 0
- Hepatotoxicity (association with vascular disease) [2]: 0
- Hepatotoxicity (severe hepatitis) [3]: 0
- Hepatotoxicity (moderate) [4]: 0%
- Hepatotoxicity (cirrhosis) [5]: 0
- Hepatotoxicity (chronic liver disease) [6]: 0
- Hepatotoxicity (benign tumour) [7]: 0
- Hepatotoxicity (acute) [8]: 0%
- Hepatotoxicity (steatosis) [9]: 0
- Hepatotoxicity (choleostasis) [10]: 0
- Hepatotoxicity (acute) [11]: 0
- Hepatotoxicity (moderate) [12]: 1
- Hepatotoxicity (cytolytic) [13]: 0
- Hepatotoxicity (granulomatous hepatitis) [14]: 0

Compound: CCNC(=O)[C@@H]1CCCN1C(=O)[C@H](CCCNC(=N)N)NC(=O)[C@H](CC(C)C)NC(=O)[C@@H](CC(C)C)NC(=O)[C@H](Cc1ccc(O)cc1)NC(=O)[C@H](CO)NC(=O)[C@H](Cc1c[nH]c2ccccc12)NC(=O)[C@H](Cc1c[nH]cn1)NC(=O)[C@@H]1CCC(=O)N1 [LEUPROLIDE]
- Hepatotoxicity (malignant tumour) [1]: 0
- Hepatotoxicity (association with vascular disease) [2]: 0
- Hepatotoxicity (severe hepatitis) [3]: 0
- Hepatotoxicity (moderate) [4]: 2.4%
- Hepatotoxicity (cirrhosis) [5]: 0
- Hepatotoxicity (chronic liver disease) [6]: 0
- Hepatotoxicity (benign tumour) [7]: 0
- Hepatotoxicity (acute) [8]: 0%
- Hepatotoxicity (steatosis) [9]: 0
- Hepatotoxicity (choleostasis) [10]: 0
- Hepatotoxicity (acute) [11]: 0
- Hepatotoxicity (moderate) [12]: 3
- Hepatotoxicity (cytolytic) [13]: 0
- Hepatotoxicity (granulomatous hepatitis) [14]: 0

Compound: CO[C@H]1/C=C/O[C@@]2(C)Oc3c(C)c(O)c4c(O)c(c5c(nc6cc(C)ccn65)c4c3C2=O)NC(=O)/C(C)=C\C=C\[C@H](C)[C@H](O)[C@@H](C)[C@@H](O)[C@@H](C)[C@H](OC(C)=O)[C@@H]1C [RIFAXIMIN]
- Hepatotoxicity (malignant tumour) [1]: 0
- Hepatotoxicity (association with vascular disease) [2]: 0
- Hepatotoxicity (severe hepatitis) [3]: 0
- Hepatotoxicity (moderate) [4]: 26.7%
- Hepatotoxicity (cirrhosis) [5]: 0
- Hepatotoxicity (chronic liver disease) [6]: 0
- Hepatotoxicity (benign tumour) [7]: 0
- Hepatotoxicity (acute) [8]: 0%
- Hepatotoxicity (steatosis) [9]: 0
- Hepatotoxicity (choleostasis) [10]: 0
- Hepatotoxicity (acute) [11]: 0
- Hepatotoxicity (moderate) [12]: 27
- Hepatotoxicity (cytolytic) [13]: 0
- Hepatotoxicity (granulomatous hepatitis) [14]: 0

Compound: Nc1ccc(S(=O)(=O)Nc2nccs2)cc1 [SULFATHIAZOLE]
- Hepatotoxicity (malignant tumour) [1]: 0
- Hepatotoxicity (association with vascular disease) [2]: 0
- Hepatotoxicity (severe hepatitis) ([3]; Liver): 0
- Hepatotoxicity (moderate) ([4]; Liver): 0%
- Hepatotoxicity (cirrhosis) [5]: 0
- Hepatotoxicity (chronic liver disease) [6]: 0
- Hepatotoxicity (benign tumour) [7]: 0
- Hepatotoxicity (acute) ([8]; Liver): 0%
- Hepatotoxicity (steatosis) [9]: 0
- Hepatotoxicity (choleostasis) ([10]; Liver): 0
- Hepatotoxicity (acute) [11]: 0
- Hepatotoxicity (moderate) [12]: 1
- Hepatotoxicity (cytolytic) ([13]; Liver): 0
- Hepatotoxicity (granulomatous hepatitis) ([14]; Liver): 0

Compound: CNC1CCCN(c2c(F)cc3c(=O)c(C(=O)O)cn(C4CC4)c3c2OC)C1 (stereo unspecified) [BALOFLOXACIN]
- Hepatotoxicity (malignant tumour) [1]: 0
- Hepatotoxicity (association with vascular disease) [2]: 0
- Hepatotoxicity (severe hepatitis) [3]: 0
- Hepatotoxicity (moderate) [4]: 28.6%
- Hepatotoxicity (cirrhosis) [5]: 0
- Hepatotoxicity (chronic liver disease) [6]: 0
- Hepatotoxicity (benign tumour) [7]: 0
- Hepatotoxicity (acute) [8]: 0%
- Hepatotoxicity (steatosis) [9]: 0
- Hepatotoxicity (choleostasis) [10]: 0
- Hepatotoxicity (acute) [11]: 0
- Hepatotoxicity (moderate) [12]: 23
- Hepatotoxicity (cytolytic) [13]: 0
- Hepatotoxicity (granulomatous hepatitis) [14]: 0

Compound: O=C1NCCN1c1ncc([N+](=O)[O-])s1 [NIRIDAZOLE]
- Hepatotoxicity (malignant tumour) [1]: 0
- Hepatotoxicity (association with vascular disease) [2]: 0
- Hepatotoxicity (severe hepatitis) [3]: 0
- Hepatotoxicity (moderate) [4]: 0%
- Hepatotoxicity (cirrhosis) [5]: 0
- Hepatotoxicity (chronic liver disease) [6]: 0
- Hepatotoxicity (benign tumour) [7]: 0
- Hepatotoxicity (acute) [8]: 0%
- Hepatotoxicity (steatosis) [9]: 0
- Hepatotoxicity (choleostasis) [10]: 0
- Hepatotoxicity (acute) [11]: 0
- Hepatotoxicity (moderate) [12]: 2
- Hepatotoxicity (cytolytic) [13]: 0
- Hepatotoxicity (granulomatous hepatitis) [14]: 0

Compound: COC(=O)c1nc2cc(Cl)c3cccnc3c2o1 [QUAZOLAST]
- Hepatotoxicity (malignant tumour) [1]: 0
- Hepatotoxicity (association with vascular disease) [2]: 0
- Hepatotoxicity (severe hepatitis) [3]: 0
- Hepatotoxicity (moderate) [4]: 13%
- Hepatotoxicity (cirrhosis) [5]: 0
- Hepatotoxicity (chronic liver disease) [6]: 0
- Hepatotoxicity (benign tumour) [7]: 0
- Hepatotoxicity (acute) [8]: 0%
- Hepatotoxicity (steatosis) [9]: 0
- Hepatotoxicity (choleostasis) [10]: 0
- Hepatotoxicity (acute) [11]: 0
- Hepatotoxicity (moderate) [12]: 1
- Hepatotoxicity (cytolytic) [13]: 0
- Hepatotoxicity (granulomatous hepatitis) [14]: 0

Compound: NCC[C@H](O)C(=O)N[C@@H]1C[C@H](N)[C@@H](O[C@H]2O[C@H](CN)[C@@H](O)[C@H](O)[C@H]2O)[C@H](O)[C@H]1O[C@H]1O[C@H](CO)[C@@H](O)[C@H](N)[C@H]1O [AMIKACIN]
- Hepatotoxicity (malignant tumour) [1]: 0
- Hepatotoxicity (association with vascular disease) [2]: 0
- Hepatotoxicity (severe hepatitis) [3]: 0
- Hepatotoxicity (moderate) [4]: 15.3%
- Hepatotoxicity (cirrhosis) [5]: 0
- Hepatotoxicity (chronic liver disease) [6]: 0
- Hepatotoxicity (benign tumour) [7]: 0
- Hepatotoxicity (acute) [8]: 0%
- Hepatotoxicity (steatosis) [9]: 0
- Hepatotoxicity (choleostasis) [10]: 0
- Hepatotoxicity (acute) [11]: 0
- Hepatotoxicity (moderate) [12]: 6
- Hepatotoxicity (cytolytic) [13]: 0
- Hepatotoxicity (granulomatous hepatitis) [14]: 0

Compound: CC[C@H](C)C[C@H](C)CCCCCCCCC(=O)N[C@H]1C[C@@H](O)[C@@H](NCCN)NC(=O)[C@@H]2[C@@H](O)CCN2C(=O)[C@H]([C@H](O)CCN)NC(=O)[C@H]([C@H](O)[C@@H](O)c2ccc(O)cc2)NC(=O)[C@@H]2C[C@@H](O)CN2C(=O)[C@H]([C@@H](C)O)NC1=O [CASPOFUNGIN]
- Hepatotoxicity (malignant tumour) [1]: 0
- Hepatotoxicity (association with vascular disease) [2]: 0
- Hepatotoxicity (severe hepatitis) [3]: 0
- Hepatotoxicity (moderate) [4]: 8.4%
- Hepatotoxicity (cirrhosis) [5]: 0
- Hepatotoxicity (chronic liver disease) [6]: 0
- Hepatotoxicity (benign tumour) [7]: 0
- Hepatotoxicity (acute) [8]: 0%
- Hepatotoxicity (steatosis) [9]: 0
- Hepatotoxicity (choleostasis) [10]: 0
- Hepatotoxicity (acute) [11]: 1
- Hepatotoxicity (moderate) [12]: 3
- Hepatotoxicity (cytolytic) [13]: 0
- Hepatotoxicity (granulomatous hepatitis) [14]: 0

Compound: O=C1Cc2cc(CCN3CCN(c4nsc5ccccc45)CC3)c(Cl)cc2N1 [ZIPRASIDONE]
- Hepatotoxicity (malignant tumour) [1]: 0
- Hepatotoxicity (association with vascular disease) [2]: 0
- Hepatotoxicity (severe hepatitis) [3]: 0
- Hepatotoxicity (moderate) [4]: 1.2%
- Hepatotoxicity (cirrhosis) [5]: 0
- Hepatotoxicity (chronic liver disease) [6]: 0
- Hepatotoxicity (benign tumour) [7]: 0
- Hepatotoxicity (acute) [8]: 0%
- Hepatotoxicity (steatosis) [9]: 0
- Hepatotoxicity (choleostasis) [10]: 0
- Hepatotoxicity (acute) [11]: 0
- Hepatotoxicity (moderate) [12]: 1
- Hepatotoxicity (cytolytic) [13]: 0
- Hepatotoxicity (granulomatous hepatitis) [14]: 0

Compound: COC(=O)C1=C(C)NC(C)=C(C(=O)O[C@H]2CCN(Cc3ccccc3)C2)[C@H]1c1cccc([N+](=O)[O-])c1 [BARNIDIPINE]
- Hepatotoxicity (malignant tumour) [1]: 0
- Hepatotoxicity (association with vascular disease) [2]: 0
- Hepatotoxicity (severe hepatitis) [3]: 0
- Hepatotoxicity (moderate) [4]: 6.5%
- Hepatotoxicity (cirrhosis) [5]: 0
- Hepatotoxicity (chronic liver disease) [6]: 0
- Hepatotoxicity (benign tumour) [7]: 0
- Hepatotoxicity (acute) [8]: 0%
- Hepatotoxicity (steatosis) [9]: 0
- Hepatotoxicity (choleostasis) [10]: 0
- Hepatotoxicity (acute) [11]: 0
- Hepatotoxicity (moderate) [12]: 1
- Hepatotoxicity (cytolytic) [13]: 0
- Hepatotoxicity (granulomatous hepatitis) [14]: 0

Compound: CCC(Cc1cnc2nc(N)nc(N)c2n1)c1ccc(C(=O)N[C@@H](CCC(=O)O)C(=O)O)cc1 (stereo partly specified) [EDATREXATE]
- Hepatotoxicity (malignant tumour) [1]: 0
- Hepatotoxicity (association with vascular disease) [2]: 0
- Hepatotoxicity (severe hepatitis) [3]: 0
- Hepatotoxicity (moderate) [4]: 30%
- Hepatotoxicity (cirrhosis) [5]: 0
- Hepatotoxicity (chronic liver disease) [6]: 0
- Hepatotoxicity (benign tumour) [7]: 0
- Hepatotoxicity (acute) [8]: 3.2%
- Hepatotoxicity (steatosis) [9]: 0
- Hepatotoxicity (choleostasis) [10]: 0
- Hepatotoxicity (acute) [11]: 2
- Hepatotoxicity (moderate) [12]: 8
- Hepatotoxicity (cytolytic) [13]: 2
- Hepatotoxicity (granulomatous hepatitis) [14]: 0

Compound: O=C(O)Cc1nn(Cc2nc3cc(C(F)(F)F)ccc3s2)c(=O)c2ccccc12 [ZOPOLRESTAT]
- Hepatotoxicity (malignant tumour) [1]: 0
- Hepatotoxicity (association with vascular disease) [2]: 0
- Hepatotoxicity (severe hepatitis) [3]: 0
- Hepatotoxicity (moderate) [4]: 11.6%
- Hepatotoxicity (cirrhosis) [5]: 0
- Hepatotoxicity (chronic liver disease) [6]: 0
- Hepatotoxicity (benign tumour) [7]: 0
- Hepatotoxicity (acute) [8]: 0%
- Hepatotoxicity (steatosis) [9]: 0
- Hepatotoxicity (choleostasis) [10]: 0
- Hepatotoxicity (acute) [11]: 0
- Hepatotoxicity (moderate) [12]: 1
- Hepatotoxicity (cytolytic) [13]: 0
- Hepatotoxicity (granulomatous hepatitis) [14]: 0
